Source: patent US11905263B1, “4-nitro-N′-(2-(5-phenyl-1,3,4-oxadiazol-2-ylthio)acetoxy)benzimidamide as an antimicrobial compound” (KING FAISAL UNIVERSITY, priority 2023, dated 2024)

Key:
Assay type in all cases: cell-based
Staphylococcus aureus = experiment: Agar plate disc-diffusion, antibacterial, inhibition zone; details: Gram positive
Description: (§1) The agar plate disc-diffusion method was applied. […] The discs were then placed onto the surface of agar plates (nutrient agar for bacteria and Sabouraud's dextrose agar for fungi) seeded with the test organism. Each plate contained 15 mL of the agar medium, previously seeded with 0.2 mL of the broth culture of each organism pregrown for 18 hours. The plates were incubated at 37° C. for 48 hours, and 72 hours for fungi. The inhibition zones was measured in mm. Discs impregnated with DMSO were used as a control, and its inhibition zone was subtracted from the tested compound actual inhibition zone.

Pseudomonas aeruginosa = experiment: as above; details: Gram negative
Description: as §1

Bacillus cereus = experiment: as above; details: Gram positive
Description: as §1

Escherichia coli = experiment: as above; details: Gram negative
Description: as §1

[1] = test system: Chrysosporium keratinophilum; experiment: Agar plate disc-diffusion, antifungal, inhibition zone; details: fungal
Description: as §1

Aspergillus flavus = experiment: as above; details: fungal
Description: as §1

[2] = A = concentration of comp. = 10,000 μL
[3] = B = concentration of comp. = 30,000 μL
[4] = C = concentration of comp. = 50,000 μL

## N/C(=N\OC(=O)CSc1nnc(-c2ccccc2)o1)c1ccc([N+](=O)[O-])cc1 [Compound 3, 4-nitro-N′-(2-(5-phenyl-1,3,4-oxadiazol-2-ylthio)acetoxy)benzimidamide]
Staphylococcus aureus; [2]
  inhibition zone, Staphylococcus aureus: 19 mm
Staphylococcus aureus; [3]
  inhibition zone, Staphylococcus aureus: 22 mm
Staphylococcus aureus; [4]
  inhibition zone, Staphylococcus aureus: 38 mm
Pseudomonas aeruginosa; [2]
  inhibition zone, Pseudomonas aeruginosa: 19 mm
Pseudomonas aeruginosa; [3]
  inhibition zone, Pseudomonas aeruginosa: 25 mm
Pseudomonas aeruginosa; [4]
  inhibition zone, Pseudomonas aeruginosa: 36 mm
Bacillus cereus; [2]
  inhibition zone, Bacillus Cereus: 20 mm
Bacillus cereus; [3]
  inhibition zone, Bacillus Cereus: 25 mm
Bacillus cereus; [4]
  inhibition zone, Bacillus Cereus: 34 mm
Escherichia coli; [2]
  inhibition zone, Escherichia coli: 27 mm
Escherichia coli; [3]
  inhibition zone, Escherichia coli: 33 mm
Escherichia coli; [4]
  inhibition zone, Escherichia coli: 48 mm
[1]; [2]
  inhibition zone, Chrysosporium keratinophilum: 26 mm
[1]; [3]
  inhibition zone, Chrysosporium keratinophilum: 28 mm
[1]; [4]
  inhibition zone, Chrysosporium keratinophilum: 43 mm
Aspergillus flavus; [2]
  inhibition zone, Aspergillus flavus: 17 mm
Aspergillus flavus; [3]
  inhibition zone, Aspergillus flavus: 23 mm
Aspergillus flavus; [4]
  inhibition zone, Aspergillus flavus: 35 mm
